Assay results reported in patent US5656600A, “α-ketoamide derivatives as inhibitors of thrombosis” (Corvas International, Inc., priority 1993, dated 1997).
≈ marks a conversion by molar mass, not a printed value. Residues, ends and D or L forms follow the SMILES beside them. *: point of attachment. Pentanoyl(2-Pr) = CCCC(CCC)C(=O)*

Tests used:
[1] = target: cytosol aminopeptidase; settings: Ocain et al.; cited from earlier work
[2] = target: arginyl aminopeptidase; settings: Ocain et al.; cited from earlier work
[3] = target: microsomal aminopeptidase; settings: Ocain et al.; cited from earlier work
[4] = target: α-thrombin (Homo sapiens, UniProt P00734); experiment: Amidolytic thrombin assay (inhibition constant Ki); format: biochemical; settings: chromogenic substrate Pefachrome t-PA, HBSA pH 7.5; slow-binding (kon/koff) or Dixon analysis
Method: The ability of the compounds of the present invention to act as inhibitors of thrombin catalytic activity in comparison to Hirulog-1 (compound 25) was assessed by determining their inhibition constant, Ki.
Enzyme activity was determined using the chromogenic substrate Pefachrome t-PA (CH3 SO2 -D-hexahydrotyrosine-glycyl-L-arginine-p-nitroaniline, obtained from Pentapharm Ltd.). The substrate was reconstituted in deionized water prior to use.
Ki values were determined for test compounds using the following methodologies:
The assay was conducted by combining in appropriate wells of a Corning microtiter plate, 50 μL of HBSA, 50 μL of the test compound at a specified concentration diluted in HBSA (or HBSA alone for Vo(uninhibited velocity) measurement), and 50 μL of the chromogenic substrate diluted in HBSA. At time zero, 50 μL of α-thrombin diluted in HBSA, was added to the wells yielding a final concentration of 0.25 nM in a total volume of 200 μL. Velocities of Pefachrome-tPA substrate hydrolysis which occurred over a 40 minute time period was measured by the change in absorbance at 405 nm using a Thermo Max® Kinetic Microplate Reader. […] The linear relationship between kobs and inhibitor concentration is indicative of a competitive, one step mechanism and was used to calculate kon and koff which yielded a value for Ki after taking into consideration the concentration and Km (38.5 μM) of the substrate in the assay.
The initial velocity of Pefachrome t-PA hydrolysis was measured by the change in absorbance at 405 nm using a Thermo Max® Kinetic Microplate Reader over a 2 minute period in which less than 5% of the added substrate was utilized. The relationship between the ratio of the inhibited steady-state velocity (Vs) and the uninhibited velocity (Vo) to the concentration of inhibitor [It ], was analyzed using Equation 1 developed by Morrison , J. F., Biochim. Biophys. Acta, 185:269 (1969) for inhibitors which deplete a significant amount of the total enzyme (Et) over the course of the assay (designated tight binding inhibitors):
Vs/Vo={([Et ]-[It ]-Ki*)+[([It ]+Ki*-[Et ])^2
Ki* was determined by fitting Vs/Vo verses [I] using Equation 1 by non-linear regression analysis.
The best fit of the data for both compounds was to the equation describing competitive inhibition.

[5] = target: thrombin (Homo sapiens, UniProt P00734); settings: cited from earlier work

For NC(=O)C(=O)C(N)Cc1ccccc1 (stereo not drawn) [3-Amino-2-oxo-4-phenylbutanoic acid amide], the Ki [1] is listed as 1000 nM, the Ki [2] is listed as 1500 nM and the Ki [3] is listed as 2500 nM.
CCCC(CCC)C(=O)N[C@@H](CC(=O)O)C(=O)N1CCC[C@H]1C(=O)N[C@@H](CCCNC(=N)N)C(=O)N1CCC[C@H]1C(=O)NCC(=O)NCC(=O)NCC(=O)NCC(=O)N[C@@H](CC(N)=O)C(=O)NCC(=O)N[C@@H](CC(=O)O)C(=O)N[C@@H](Cc1ccccc1)C(=O)N[C@@H](CCC(=O)O)C(=O)N[C@@H](CCC(=O)O)C(=O)N[C@H](C(=O)N1CCC[C@H]1C(=O)N[C@@H](CCC(=O)O)C(=O)N[C@@H](Cc1ccc(O)cc1)C(=O)N[C@@H](CC(C)C)C(=O)O)[C@@H](C)CC [Compound 9] ({Pentanoyl(2-Pr)}-DPRPGGGGNGDFEEIPEYL-OH) showed a Ki [4] of 46.1 nM.
Compound CCCC(CCC)C(=O)N[C@@H](CC(=O)O)C(=O)N1CCC[C@H]1C(=O)N[C@@H](CCCNC(=N)N)C(=O)C(=O)NCC(=O)NCC(=O)NCC(=O)NCC(=O)NCC(=O)N[C@@H](CC(N)=O)C(=O)NCC(=O)N[C@@H](CC(=O)O)C(=O)N[C@@H](Cc1ccccc1)C(=O)N[C@@H](CCC(=O)O)C(=O)N[C@@H](CCC(=O)O)C(=O)N[C@H](C(=O)N1CCC[C@H]1C(=O)N[C@@H](CCC(=O)O)C(=O)N[C@@H](CCC(=O)O)C(=O)N[C@@H](Cc1ccc(O)cc1)C(=O)N[C@@H](CC(C)C)C(=O)O)[C@@H](C)CC [Compound 10] has a Ki [4] of 0.04 nM.
CCCC(CCC)C(=O)N[C@@H](CC(=O)O)C(=O)N1CCC[C@H]1C(=O)N[C@@H](CCCNC(=N)N)C(=O)C(=O)NCC(=O)NCC(=O)NCC(=O)NCC(=O)NCC(=O)N[C@@H](CCCNC(=N)N)C(=O)NCC(=O)N[C@@H](CC(=O)O)C(=O)N[C@@H](Cc1ccccc1)C(=O)N[C@@H](CCC(=O)O)C(=O)N[C@@H](CCC(=O)O)C(=O)N[C@H](C(=O)N1CCC[C@H]1C(=O)N[C@@H](CCC(=O)O)C(=O)N[C@@H](CCC(=O)O)C(=O)N[C@@H](Cc1ccc(O)cc1)C(=O)N[C@@H](CC(C)C)C(=O)O)[C@@H](C)CC [Compound 11] showed a Ki [4] of 0.0078 nM.
In the case of N=C(N)NCCC[C@@H]1NC(=O)[C@@H]2CCCN2C(=O)[C@@H](NC=O)CNC(=O)/C=C/[C@H](Cc2ccc(O)cc2)NC(=O)[C@@H](Cc2ccccc2)NC(=O)C1=O [Cyclotheonamide A], the “IC50 (thrombin), reported” value ([5]; Fusetani et al., Hagihara et al.) is listed as 0.076 µg/mL (≈ 0.104 µM) and the IC50 ([5]; Fusetani et al., Hagihara et al., read-out: IC50 (thrombin), reported) is listed as 99 nM.
For “N-acetyl--D--Phe--Pro Arg--[.psi.C(=O)--CH2 ]--CH2 --CH2 --CH2 -(C=O)--Gln--Ser--His--Asn--Asp--Gly--Asp--Phe--Glu--Glu--Ile--Pro--Glu--Glu--Tyr--Leu--Gln”, the Ki ([5]; literature values, read-out: Ki (thrombin), reported) is listed as 0.14 nM.
